How the values were obtained:
5-HT1A receptor = biological target: T1, 5-HT1A receptor (Homo sapiens, UniProt P08908); test: 5-HT1A receptor binding (inhibition of labeled ligand binding); settings: compound at 1micrMol
T1 sequence (P08908 1-422): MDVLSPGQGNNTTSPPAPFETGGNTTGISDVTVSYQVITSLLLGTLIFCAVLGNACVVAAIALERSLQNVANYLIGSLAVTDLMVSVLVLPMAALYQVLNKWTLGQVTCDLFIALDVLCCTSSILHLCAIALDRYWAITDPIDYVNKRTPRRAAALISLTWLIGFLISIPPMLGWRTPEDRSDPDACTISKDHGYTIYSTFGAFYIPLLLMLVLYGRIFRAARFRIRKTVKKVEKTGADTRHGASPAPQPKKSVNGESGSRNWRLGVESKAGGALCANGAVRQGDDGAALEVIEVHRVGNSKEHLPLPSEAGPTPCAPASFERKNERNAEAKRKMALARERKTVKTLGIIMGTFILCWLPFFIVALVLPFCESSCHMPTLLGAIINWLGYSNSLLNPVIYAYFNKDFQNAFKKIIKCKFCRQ
Procedure: (§1) The compounds of the invention may be used in the treatment of CNS disorders in mammals, especially human. Of particular interest is the use of the compounds of the invention as anti-dyskinetic agents. Dyskinesia is a serious side effect associated with L-DOPA treatment of patients with Parkinson's disease.
(§2) The compounds of Examples 1, 3, 4 and 9 were tested for their 5-HT1A receptor binding activity and dopamine (D2, D3 and D4.4) receptors binding activity according to the protocols set forth above. The percentage inhibition of labeled ligand binding caused by the indicated few test ligand compound of the invention at different concentrations of said test ligand is shown in Table I.

dopamine D2 receptor = dopamine D2 receptor (Homo sapiens, UniProt P14416); test: dopamine D2 receptor binding (inhibition of labeled ligand binding); settings: compound at 1micrMol
Chain of dopamine D2 receptor (P14416 whole entry): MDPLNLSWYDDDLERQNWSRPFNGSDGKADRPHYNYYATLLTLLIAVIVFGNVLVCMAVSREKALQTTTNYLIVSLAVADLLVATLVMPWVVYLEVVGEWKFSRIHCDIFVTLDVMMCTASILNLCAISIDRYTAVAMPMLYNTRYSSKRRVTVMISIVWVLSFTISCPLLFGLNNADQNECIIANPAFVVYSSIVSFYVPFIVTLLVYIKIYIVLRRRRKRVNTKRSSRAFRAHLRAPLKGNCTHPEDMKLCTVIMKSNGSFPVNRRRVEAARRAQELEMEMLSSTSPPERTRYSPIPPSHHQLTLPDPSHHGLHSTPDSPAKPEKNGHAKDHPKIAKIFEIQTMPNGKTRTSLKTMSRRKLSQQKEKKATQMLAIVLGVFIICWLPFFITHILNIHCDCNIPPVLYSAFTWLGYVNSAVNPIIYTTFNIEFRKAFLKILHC
Procedure: as §1, §2

dopamine D3 receptor = dopamine D3 receptor (Homo sapiens, UniProt P35462); test: dopamine D3 receptor binding (inhibition of labeled ligand binding); settings: compound at 1micrMol
Chain of dopamine D3 receptor (P35462 whole entry): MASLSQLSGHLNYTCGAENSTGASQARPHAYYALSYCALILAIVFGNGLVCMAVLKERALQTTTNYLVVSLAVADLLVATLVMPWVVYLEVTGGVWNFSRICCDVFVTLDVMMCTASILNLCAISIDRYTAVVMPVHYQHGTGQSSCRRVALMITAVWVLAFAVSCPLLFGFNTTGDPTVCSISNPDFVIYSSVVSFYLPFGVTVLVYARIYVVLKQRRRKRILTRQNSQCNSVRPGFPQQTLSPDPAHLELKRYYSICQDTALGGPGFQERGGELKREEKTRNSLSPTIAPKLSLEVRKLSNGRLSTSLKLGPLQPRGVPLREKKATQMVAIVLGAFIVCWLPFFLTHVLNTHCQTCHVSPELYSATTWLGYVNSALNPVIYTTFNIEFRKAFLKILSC
Procedure: as §1, §2

dopamine D4.4 receptor = biological target: T2, dopamine D4.4 receptor (Homo sapiens, UniProt P21917); test: dopamine D4.4 receptor binding (inhibition of labeled ligand binding); settings: compound at 1micrMol
T2 sequence (P21917 1-419): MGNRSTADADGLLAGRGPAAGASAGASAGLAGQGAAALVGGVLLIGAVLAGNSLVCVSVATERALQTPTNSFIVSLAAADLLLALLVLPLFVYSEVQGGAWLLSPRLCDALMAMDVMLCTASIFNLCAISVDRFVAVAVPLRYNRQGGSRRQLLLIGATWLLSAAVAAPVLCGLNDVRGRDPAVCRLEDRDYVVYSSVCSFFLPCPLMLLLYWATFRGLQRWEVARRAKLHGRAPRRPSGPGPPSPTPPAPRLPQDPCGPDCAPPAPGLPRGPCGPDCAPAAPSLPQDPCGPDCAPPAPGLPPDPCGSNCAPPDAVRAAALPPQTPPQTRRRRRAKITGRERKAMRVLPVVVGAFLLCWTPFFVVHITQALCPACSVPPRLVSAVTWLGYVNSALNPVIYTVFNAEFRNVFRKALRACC
Procedure: as §1, §2

[1] = tested on: L-DOPA induced dyskinesia in parkinsonian rats; test: L-DOPA-induced abnormal involuntary movements (AIMS) in the 6-OHDA lesion rat model; format: in vivo
Procedure: In the following study, the compound of Example 2 was tested for its in vivo activity against L-DOpA induced dyskinesia in parkinsonian rats (the model is the L-DOPA-induced abnormal involuntary movements (AIMS) in the 6-hydroxydopamine (6-OHDA) lesion rat model).
Rats were unilaterally lesioned with (6-OHDA) in medial forebrain bundle. Three weeks later, rats were injected with apomorphine (0.1 mg/kg s.c.) and numbers of contralateral turns were counted using a rotameter. Two weeks after the apomorphine test, rats showing marked turning activity were selected and split into 2 groups:
The experimental group, which received the compound of Example 2, and the control group, which received the injection medium for said compound (CMC in saline); n=5 and 3 respectively.
All animals were treated daily with L-dopa/carbidopa (25/6 mg/kg respectively) and dyskinetic movements were scored commencing day 5. Compounds were administered in escalating dose, at daily doses shown below, commencing day 11 of L-dopa treatment: 1 mg/kg—11th day, 1 mg/kg—12th, 2 mg/kg—15th, 2 mg/kg—16th. On the 17th day, the rats of the control group were injected with propranolol (10 mg/kg in saline), whereas the rats of the experimental group were injected with saline. […]
The following dyskinetic movements were scored: dystonic posturing, head and upper body movements, forelimb, locomotion, trunk, orolingual.

| SMILES | 5-HT1A binding, percentage inhibition of labeled ligand binding (5-HT1A receptor) | D2 binding, percentage inhibition of labeled ligand binding (dopamine D2 receptor) | D3 binding, percentage inhibition of labeled ligand binding (dopamine D3 receptor) | D4 binding, percentage inhibition of labeled ligand binding (dopamine D4.4 receptor) | anti-dyskinetic effect (AIM score, sum of all movements) ([1]; 6-OHDA lesioned rats on daily L-dopa/carbidopa 25/6 mg/kg, 16th day, second successive daily dose of 2 mg/kg) | effect on abnormal involuntary movements (AIM score) ([1]; 6-OHDA lesioned rats on L-dopa/carbidopa, control group, 10 mg/kg in saline on the 17th day) |
| --- | --- | --- | --- | --- | --- | --- |
| Oc1cccc(N2CCN(Cc3cccc4c3oc3ccccc34)CC2)c1 [Example L-33] | 43.4% | 75% | 78.2% | 77.7% | strong anti-dyskinetic effect |  |
| c1ccc(C2CCN(Cc3cccc4c3oc3ccccc34)CC2)cc1 [Example L-105] | 42.2% | 93.8% | 44.5% | 69.1% |  |  |
| COc1ccccc1N1CCN(Cc2cccc3c2oc2ccccc23)CC1 [Example L-107] | 86.7% | 96% | 33.7% | 78% |  |  |
| N#Cc1ccccc1N1CCN(Cc2cccc3c2oc2ccccc23)CC1 [Example L-109] | 73.5% | 68.7% | 63.2% | 64.9% |  |  |
| CC(C)NCC(O)COc1cccc2ccccc12 (stereo not drawn) [Propanolol, propranolol, reference compound] |  |  |  |  |  | reduced the abnormal involuntary movements |
